The source of these data is patent US9072675B2, “Non-irritating benzoyl peroxide” (Essential Ingredients, Inc., priority 2010, dated 2015).

The subject of this data set is skin of the infrascapular regions of the back. In words: Cumulative irritation patch test (12 days, semi-occlusive patches). Conditions: 25 subjects, 24 hour semi-occlusive patches over 12 days, daily score capped at 3; maximum 900.

Molecules are shown by their SMILES.

Experimental: Twenty-five subjects ages 20-65 were requested to bathe or wash as usual before arrival at the facility. Qualified subjects were then prepared for patch application by having the test sites wiped with alcohol and air-dried. […] Patches were applied for approximately a 24 hour period, then removed and discarded by the subject approximately two hours prior to grading. All induction patches were applied to the same sites unless the degree of reaction (cumulative grade 3) to a material or the adhesive necessitated removal. The skin adjacent to the patches was marked using a surgical marker or other suitable marking pen. Prior to each reapplication, the test sites were evaluated. At the final visit, no patches were applied and the patch sites were graded. Skin responses were evaluated according to the following scale by a technical associate of AMA Laboratories, Inc. (scorer) trained in the evaluation of skin using consistent adequate lighting from a 60-watt incandescent blue day light bulb to illuminate the patch area. All reasonable attempts were made to ensure that the same individual did all of the scoring of reactions to the test articles during the course of the study, and was blinded to the treatment assignments and any previous scores. […]

Regarding `CCCCCCCCCCCCOS(=O)(=O)[O-].[Na+]` [Sodium Lauryl Sulfate], the “total cumulative irritancy score” value came to 78.
